Data: the supplement of paper PMC10307832

Experiments:
Assay in all cases: relative viability (nuclei count vs DMSO), 5 days (fraction); higher = more cells survive
[1] = compound: NC(=O)[C@@H](CCC(F)(F)F)N(Cc1ccc(-c2ncon2)cc1F)S(=O)(=O)c1ccc(Cl)cc1 [Avagacestat] + CC(=O)c1c(C)c2cnc(Nc3ccc(N4CCNCC4)cn3)nc2n(C2CCCC2)c1=O [Palbociclib] (partner 0.5 µM)
How it was run: (§1)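 Cells from lung cancer lines were seeded into 1536-well plates and, one day later, dosed by pin tool. Treatments were either a single drug or a fixed dose of an anchor drug with five library-drug doses (not always all listed) in √10 steps. After 5 days, nuclei were stained in a one-step fixation (final 0.05% Triton X-100, 1% formaldehyde, 1 ug/ml Hoechst) and counted on 4× images, and relative viability is the treated-to-vehicle nuclei ratio, as the median of duplicate plates.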

Avagacestat + Luminespib = compound: NC(=O)[C@@H](CCC(F)(F)F)N(Cc1ccc(-c2ncon2)cc1F)S(=O)(=O)c1ccc(Cl)cc1 [Avagacestat] + CCNC(=O)c1noc(-c2cc(C(C)C)c(O)cc2O)c1-c1ccc(CN2CCOCC2)cc1 [Luminespib] (partner 0.01 µM)
How it was run: as §1

Avagacestat + OSI-027 = compound: NC(=O)[C@@H](CCC(F)(F)F)N(Cc1ccc(-c2ncon2)cc1F)S(=O)(=O)c1ccc(Cl)cc1 [Avagacestat] + COc1cccc2cc(-c3nc([C@H]4CC[C@H](C(=O)O)CC4)n4ncnc(N)c34)[nH]c12 [OSI-027] (partner 0.5 µM)
How it was run: as §1

Avagacestat + Pictilisib = compound: NC(=O)[C@@H](CCC(F)(F)F)N(Cc1ccc(-c2ncon2)cc1F)S(=O)(=O)c1ccc(Cl)cc1 [Avagacestat] + CS(=O)(=O)N1CCN(Cc2cc3nc(-c4cccc5[nH]ncc45)nc(N4CCOCC4)c3s2)CC1 [Pictilisib] (partner 1 µM)
How it was run: as §1

Row | Cell Line | relative viability ([1]; first compound 0.08 µM) | relative viability ([1]; first compound 0.253 µM) | relative viability ([1]; first compound 0.8 µM) | relative viability ([1]; first compound 2.53 µM) | relative viability ([1]; first compound 8 µM) | relative viability (Avagacestat + Luminespib; first compound 0.08 µM) | relative viability (Avagacestat + Luminespib; first compound 0.253 µM) | relative viability (Avagacestat + Luminespib; first compound 0.8 µM) | relative viability (Avagacestat + Luminespib; first compound 2.53 µM) | relative viability (Avagacestat + Luminespib; first compound 8 µM) | relative viability (Avagacestat + OSI-027; first compound 0.08 µM) | relative viability (Avagacestat + OSI-027; first compound 0.253 µM) | relative viability (Avagacestat + OSI-027; first compound 0.8 µM) | relative viability (Avagacestat + OSI-027; first compound 2.53 µM) | relative viability (Avagacestat + OSI-027; first compound 8 µM) | relative viability (Avagacestat + Pictilisib; first compound 0.08 µM) | relative viability (Avagacestat + Pictilisib; first compound 0.253 µM) | relative viability (Avagacestat + Pictilisib; first compound 0.8 µM) | relative viability (Avagacestat + Pictilisib; first compound 2.53 µM) | relative viability (Avagacestat + Pictilisib; first compound 8 µM)
1 | A-427 | 0.506 | 0.517 | 0.516 | 0.539 | 0.544 | 0.91 | 1.13 | 1.05 | 0.81 | 0.821 | 0.543 | 0.474 | 0.421 | 0.403 | 0.445 | 0.72 | 0.832 | 0.745 | 0.763 | 0.817
2 | COR-L 105 | 0.435 | 0.353 | 0.429 | 0.391 | 0.4 | 1.02 | 1.01 | 0.798 | 0.542 | 0.754 | 0.614 | 0.687 | 0.74 | 0.525 | 0.486 | 0.38 | 0.447 | 0.326 | 0.319 | 0.419
3 | NCI-H520 | 0.21 | 0.23 | 0.198 | 0.194 | 0.201 | 0.223 | 0.241 | 0.239 | 0.218 | 0.23 | 0.241 | 0.316 | 0.22 | 0.249 | 0.215 | 0.302 | 0.291 | 0.274 | 0.229 | 0.205
4 | EBC-1 | – | – | – | – | – | – | – | – | – | – | – | – | – | – | – | 0.429 | 0.331 | 0.413 | 0.362 | 0.327
5 | HCC-78 | 0.493 | 0.488 | 0.511 | 0.478 | 0.441 | – | – | – | – | – | 0.381 | 0.4 | 0.349 | 0.373 | 0.401 | 0.179 | 0.222 | 0.244 | 0.192 | 0.235
6 | NCI-H596 | – | – | – | – | – | 1.19 | 0.876 | 1.35 | 0.924 | 0.756 | 0.81 | 0.814 | 0.688 | 0.734 | 0.593 | 0.414 | 0.43 | 0.395 | 0.354 | 0.374
7 | NCI-H1648 | 0.237 | 0.271 | 0.289 | 0.256 | 0.284 | – | – | – | – | – | 0.266 | 0.273 | 0.271 | 0.255 | 0.232 | – | – | – | – | –
8 | SW 900 | 0.627 | 0.618 | 0.645 | 0.453 | 0.505 | 0.176 | 0.168 | 0.173 | 0.153 | 0.177 | 0.756 | 0.731 | 0.581 | 0.573 | 0.653 | – | – | – | – | –
9 | NCI-H522 | 1.13 | 1.2 | 1.08 | 0.954 | 0.946 | 1.08 | 1.12 | 1.03 | 1.21 | 1.15 | 0.823 | 0.728 | 0.655 | 0.689 | 0.725 | – | – | – | – | –
10 | A549 | – | – | – | – | – | – | – | – | – | – | – | – | – | – | – | 0.795 | 0.632 | 0.458 | 0.462 | 0.403
11 | NCI-H1299 | – | – | – | – | – | – | – | – | – | – | – | – | – | – | – | 0.806 | 1.19 | 0.81 | 0.736 | 0.578
12 | NCI-H1563 | – | – | – | – | – | 0.552 | 0.558 | 0.575 | 0.503 | 0.543 | 0.829 | 0.776 | 0.736 | 0.735 | 0.719 | 0.708 | 0.629 | 0.621 | 0.664 | 0.634
13 | Calu-6 | – | – | – | – | – | – | – | – | – | – | – | – | – | – | – | 1.3 | 1.03 | 1.18 | 0.913 | 1.02
